The source of these data is PubChem BioAssay AID256 (DTP/NCI, 2004).

For the assay, the system named is CD2F1 mice, L1210 leukemia ip, survival T/C. Put plainly: NCI In Vivo Anticancer Drug Screen. Data for tumor model L1210 Leukemia (intraperitoneal) in CD2F1 (CDF1) mice. The note with it: higher = longer survival. The essentials: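 Implant tumor; dose compound or vehicle; measure endpoint in both groups; report treated divided by control.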
Where [1] appears, read: endpoint: mean survival time, dose: 100.0 mg/kg/injection, schedule: Q04DX002 (ip), vehicle: saline with Tween-80.
The mark [2] stands for this setting: endpoint: mean survival time, dose: 200.0 mg/kg/injection, schedule: Q04DX002 (ip), vehicle: saline with Tween-80.
The mark [3] stands for this setting: endpoint: mean survival time, dose: 50.0 mg/kg/injection, schedule: Q01DX009 (ip), vehicle: saline with Tween-80.
Where [4] appears, read: endpoint: mean survival time, dose: 100.0 mg/kg/injection, schedule: Q01DX009 (ip), vehicle: saline with Tween-80.
Setting [5] is: endpoint: mean survival time, dose: 200.0 mg/kg/injection, schedule: Q01DX009 (ip), vehicle: saline with Tween-80.
The mark [6] stands for this setting: endpoint: mean survival time, dose: 6.25 mg/kg/injection, schedule: Q04DX003 (ip), vehicle: saline with Tween-80.
[7] abbreviates: endpoint: mean survival time, dose: 12.5 mg/kg/injection, schedule: Q04DX003 (ip), vehicle: saline with Tween-80.
The mark [8] stands for this setting: endpoint: mean survival time, dose: 25.0 mg/kg/injection, schedule: Q04DX003 (ip), vehicle: saline with Tween-80.
The mark [9] stands for this setting: endpoint: mean survival time, dose: 100.0 mg/kg/injection, schedule: Q04DX003 (ip), vehicle: saline with Tween-80.
[10] abbreviates: endpoint: mean survival time, dose: 400.0 mg/kg/injection, schedule: Q04DX003 (ip), vehicle: saline with Tween-80.
Setting [11] is: endpoint: mean survival time, dose: 200.0 mg/kg/injection, schedule: Q01DX001 (ip), vehicle: saline.
[12] abbreviates: endpoint: mean survival time, dose: 400.0 mg/kg/injection, schedule: Q01DX001 (ip), vehicle: saline.
The mark [13] stands for this setting: endpoint: mean survival time, dose: 200.0 mg/kg/injection, schedule: Q04DX003 (ip), vehicle: saline with Tween-80.
Setting [14] is: endpoint: mean survival time, dose: 12.5 mg/kg/injection, schedule: Q04DX002 (ip), vehicle: saline with Tween-80.

Where “and” joins values, the source holds several entries; their conditions need not be identical. Equal entries are not always repeated. Inconclusive results and toxic doses are left out.

As for `CCOc1ccccc1/C=C1\N=C(c2ccc(Cl)cc2)OC1=O`, the T/C is, setting by setting: under setting [1], 94 % of control; under setting [2], 98 % of control; (endpoint: mean survival time, dose: 400.0 mg/kg/injection, schedule: Q04DX002 (ip), vehicle: saline with Tween-80) 94 % of control.
Consider `CC(C)c1cc(C(C)C)c(S(=O)(=O)OCC2OC(OC3(COS(=O)(=O)c4c(C(C)C)cc(C(C)C)cc4C(C)C)OC(COS(=O)(=O)c4c(C(C)C)cc(C(C)C)cc4C(C)C)C(O)C3O)C(O)C(O)C2O)c(C(C)C)c1` (stereo not drawn), for which the T/C by setting is: under setting [3], 98 % of control; under setting [4], 95 % of control; under setting [5], 102 % of control.
For the compound `O=C(O)CC(O)(CC(=O)O)C(=O)O.[Sn]`, the T/C was 98 % of control under setting [6], 90 % of control under setting [7] and 102 % of control under setting [8].
Consider `Nc1nc(N)c2cc(CCc3ccccc3)ccc2n1`, for which the T/C (endpoint: mean survival time, dose: 6.25 mg/kg/injection, schedule: Q01DX009 (ip), vehicle: saline with Tween-80) was 105 % of control; the T/C under setting [6] was 98 % of control; the T/C (endpoint: mean survival time, dose: 12.5 mg/kg/injection, schedule: Q01DX009 (ip), vehicle: saline with Tween-80) was 100 % of control; the T/C under setting [7] is 98 % of control; the T/C (endpoint: mean survival time, dose: 25.0 mg/kg/injection, schedule: Q01DX009 (ip), vehicle: saline with Tween-80) is 104 % of control; the T/C under setting [8] was 98 % of control. The T/C (endpoint: mean survival time, dose: 50.0 mg/kg/injection, schedule: Q01DX009 (ip), vehicle: Klucel (hydroxypropylcellulose) (HPC)) is 106 % of control.
Take `Cc1csc2nc(-c3ccccc3)[nH]c(=S)c12`: the T/C was 90 % of control under setting [9] and 87 % of control under setting [10].
With `NS(=O)(=O)c1ccc(Cl)c(Cl)c1`, the T/C was 108 % of control under setting [4] and 111 % of control under setting [5].
Turning to `O=C(O)CC(O)(CC(=O)O)C(=O)O`, the T/C is, setting by setting: (endpoint: mean survival time, dose: 60.0 mg/kg/injection, schedule: Q01DX001 (ip), vehicle: saline) 106 % of control; under setting [11], 96 % of control; under setting [12], 94 % of control; (endpoint: mean survival time, dose: 800.0 mg/kg/injection, schedule: Q01DX001 (ip), vehicle: saline) 100 % of control.
As to `O=C(O)c1ccc(C(=O)O)nc1`, the T/C by setting is: (endpoint: mean survival time, dose: 100.0 mg/kg/injection, schedule: Q01DX001 (ip), vehicle: saline) 87 % of control; under setting [11], 95 % of control; under setting [12], 97 % of control.
Consider `N#CCCCCN=[N+]=[N-]`, for which the T/C by setting is: (endpoint: mean survival time, dose: 75.0 mg/kg/injection, schedule: Q01DX001 (ip), vehicle: saline) 97 % of control; (endpoint: mean survival time, dose: 150.0 mg/kg/injection, schedule: Q01DX001 (ip), vehicle: saline) 103 % of control.
`N/C(=N\O)c1ncn(C2CCCC2)c1N`: the T/C is, setting by setting: (endpoint: mean survival time, dose: 75.0 mg/kg/injection, schedule: Q01DX001 (ip), vehicle: other) 100 % of control; (endpoint: mean survival time, dose: 150.0 mg/kg/injection, schedule: Q01DX001 (ip), vehicle: other) 102 % of control.
As to `C=C(C)CC1(CC)C(=O)NC(=S)NC1=O`, the T/C was 102 % of control under setting [3] and 101 % of control under setting [4].
On to `OCc1cc(Cl)cc(Cl)c1OCc1ccccc1`, for which the T/C by setting is: (endpoint: mean survival time, dose: 100.0 mg/kg/injection, schedule: Q04DX002 (ip), vehicle: other) 101 % of control; (endpoint: mean survival time, dose: 200.0 mg/kg/injection, schedule: Q04DX002 (ip), vehicle: other) 101 % of control; (endpoint: mean survival time, dose: 400.0 mg/kg/injection, schedule: Q04DX002 (ip), vehicle: other) 101 % of control.
As to `O=C(O)CCn1cccc1`, the T/C reads like this: (endpoint: mean survival time, dose: 100.0 mg/kg/injection, schedule: Q01DX001 (ip), vehicle: saline with Tween-80) 91 % of control; (endpoint: mean survival time, dose: 200.0 mg/kg/injection, schedule: Q01DX001 (ip), vehicle: saline with Tween-80) 89 % of control.
`C=CN1C(=O)NC(C)(CC(C)C)C1=O` (stereo not drawn): the T/C was 94 % of control under setting [9], 92 % of control under setting [13] and 102 % of control under setting [10].
In the same order, the values of `CC(=O)NC(CSCC(=O)c1ccccc1)C(=O)O` (stereo not drawn) are 98 % of control, 102 % of control and 100 % of control.
Consider `O=C(O)CCCCCCC(=O)c1ccccc1`, for which the T/C is, setting by setting: under setting [4], 98 % of control; under setting [5], 97 % of control; (endpoint: mean survival time, dose: 400.0 mg/kg/injection, schedule: Q01DX009 (ip), vehicle: saline with Tween-80) 93 % of control.
As to `O=C1c2ccccc2C(=O)N1CN1C(=O)c2ccccc2C1=O`, the T/C is 93 % of control under setting [3], 92 % of control under setting [4] and 93 % of control under setting [5].
Consider `CCC(=O)c1cc2c(c3c1CCCC3)CCCC2`, for which the T/C is 104 % of control (endpoint: mean survival time, dose: 25.0 mg/kg/injection, schedule: Q01DX009 (ip), vehicle: other); 98 % of control (endpoint: mean survival time, dose: 50.0 mg/kg/injection, schedule: Q01DX009 (ip), vehicle: other); 104 % of control (endpoint: mean survival time, dose: 100.0 mg/kg/injection, schedule: Q01DX009 (ip), vehicle: other).
Turning to `COc1cc(C=C2C(=O)C=CC2=O)ccc1O`, the T/C is 108 % of control (endpoint: mean survival time, dose: 3.13 mg/kg/injection, schedule: Q04DX002 (ip), vehicle: saline with Tween-80); 100 % of control (endpoint: mean survival time, dose: 6.25 mg/kg/injection, schedule: Q04DX002 (ip), vehicle: saline with Tween-80); 106 % of control under setting [14].
Take `COc1ccc2c(c1)CCC1C2CCC2(C)C(=O)OC(=O)C12` (stereo not drawn): the T/C was 101 % of control (endpoint: mean survival time, dose: 100.0 mg/kg/injection, schedule: Q04DX003 (sc), vehicle: steriod suspending solution); 95 % of control (endpoint: mean survival time, dose: 200.0 mg/kg/injection, schedule: Q04DX003 (sc), vehicle: steriod suspending solution); 98 % of control (endpoint: mean survival time, dose: 400.0 mg/kg/injection, schedule: Q04DX003 (sc), vehicle: steriod suspending solution).
In the case of `CCCCCCOC(=O)C(O)c1ccccc1` (stereo not drawn), the T/C by setting is: under setting [9], 103 % of control; under setting [13], 103 % of control; under setting [10], 97 % of control.
In the case of `CCn1c(=N)sc2ccc(C(=O)OC)cc21`, the T/C is 101 % of control under setting [14]; 96 % of control (endpoint: mean survival time, dose: 25.0 mg/kg/injection, schedule: Q04DX002 (ip), vehicle: saline with Tween-80); 90 % of control (endpoint: mean survival time, dose: 50.0 mg/kg/injection, schedule: Q04DX002 (ip), vehicle: saline with Tween-80); 88 % of control under setting [13].
`CCOC(=O)C1(C(=O)OCC)C(C)CC2Nc3ccccc3C(=O)N21` (stereo not drawn): the T/C is 100 % of control (endpoint: mean survival time, dose: 100.0 mg/kg/injection, schedule: Q01DX001 (ip), vehicle: Klucel (hydroxypropylcellulose) (HPC)); 96 % of control (endpoint: mean survival time, dose: 200.0 mg/kg/injection, schedule: Q01DX001 (ip), vehicle: Klucel (hydroxypropylcellulose) (HPC)); 92 % of control (endpoint: mean survival time, dose: 400.0 mg/kg/injection, schedule: Q01DX001 (ip), vehicle: Klucel (hydroxypropylcellulose) (HPC)).
Turning to `CC(S)c1ccccc1` (stereo not drawn), the T/C is, setting by setting: under setting [3], 90 % of control; under setting [4], 102 % of control; under setting [9], 104 % of control; under setting [5], 104 % of control; under setting [13], 98 % of control.
In the case of `COC1C(O)C(CO)OC1n1cc(F)c(=O)[nH]c1=O` (stereo not drawn), the T/C reads like this: (endpoint: mean survival time, dose: 50.0 mg/kg/injection, schedule: Q01DX009 (ip), vehicle: saline) 104 % of control; (endpoint: mean survival time, dose: 100.0 mg/kg/injection, schedule: Q01DX009 (ip), vehicle: saline) 100 % of control; (endpoint: mean survival time, dose: 200.0 mg/kg/injection, schedule: Q01DX009 (ip), vehicle: saline) 115 % of control.
In the case of `CC(=O)C1CCC2C3=CC=C4CC(OC(=O)c5ccccc5)CCC4(C)C3CCC12C` (stereo not drawn), the T/C by setting is: under setting [9], 101 % of control; under setting [13], 98 % of control; under setting [10], 102 % of control.
Turning to `COc1cccc2c1C(=O)c1c(O)c3c(c(O)c1C2=O)C[C@](O)(C(=O)CO)CC3OC1CC(N)C(OC2CCCCO2)C(C)O1` (stereo partly drawn), the T/C by setting is: (endpoint: median survival time, dose: 3.0 mg/kg/injection, schedule: Q01DX009 (ip), vehicle: water) 123 % of control and 227 % of control; (endpoint: median survival time, dose: 6.0 mg/kg/injection, schedule: Q01DX009 (ip), vehicle: water) 91 % of control.
As for `COc1ccccc1NC(=O)Oc1ccc(Cl)cc1Cl`, the T/C is 103 % of control under setting [1] and 95 % of control under setting [2].
Turning to `Oc1c(Br)cc(Br)c(O)c1Br`, the T/C is 97 % of control under setting [9] and 95 % of control under setting [13].
Take `Nc1ccc2nc3c4ccccc4c(O)n3nc2c1`: the T/C by setting is: under setting [4], 89 % of control; under setting [5], 104 % of control.
